Our source for the MIC and CC50 values is ChEMBL document CHEMBL4513139, “CO-ADD screening of University of Strathclyde (UK) compounds”.

The test system of one test is Pseudomonas aeruginosa. The experiment in a line: microbe, parasite or virus in culture. Conditions: ATCC 27853, 18 h, ASSAY_TEST Inhibition of Bacterial Growth, detection method Absorption (OD600), MEDIA CAMHB, plate type 384well, NBS, CORNING #3640.
The test system of a further test is Candida albicans. Put plainly: microbe, parasite or virus in culture. The note with it: ATCC 90028, ASSAY_TEST Inhibition of Fungal Growth, detection method Absorption (OD530), plate type 384well, NBS, CORNING #3640.
A further test deals with Klebsiella pneumoniae. Put plainly: microbe, parasite or virus in culture. Conditions: ATCC 700603, 18 h, ASSAY_TEST Inhibition of Bacterial Growth, detection method Absorption (OD600), MEDIA CAMHB, plate type 384well, NBS, CORNING #3640.
Another test has as its system Staphylococcus aureus. The experiment in a line: microbe, parasite or virus in culture. Conditions: ATCC 43300, 18 h, ASSAY_TEST Inhibition of Bacterial Growth, detection method Absorption (OD600), MEDIA CAMHB, plate type 384well, NBS, CORNING #3640.
In another test the test system is Acinetobacter baumannii. Put plainly: microbe, parasite or virus in culture. Conditions: ATCC 19606, 18 h, ASSAY_TEST Inhibition of Bacterial Growth, detection method Absorption (OD600), MEDIA CAMHB, plate type 384well, NBS, CORNING #3640.
In a further test the test system is HEK293. The experiment in a line: cells. The test is classed as functional, Homo sapiens, ATCC CRL1573. The note with it: Homo sapiens, ATCC CRL1573, HEK293; ASSAY_TEST Inhibition of Cell Viability; detection method Resazurin; Fluorescence (ex560/em590); MEDIA DMEM with 10% FBS; plate type 384well; TC; CORNING #3712; time 18 hr; read-out: CC50. Background: Alamar Blue is a resazurin reagent that responds to reducing activity.

The next test relates to Escherichia coli. The experiment in a line: microbe, parasite or virus in culture. The note with it: ATCC 25922, 18 h, ASSAY_TEST Inhibition of Bacterial Growth, detection method Absorption (OD600), MEDIA CAMHB, plate type 384well, NBS, CORNING #3640.

Description for Acinetobacter baumannii: Antibacterial activity against Acinetobacter baumannii ATCC 19606 (CO-ADD:GN_034); MIC in CAMBH media using NBS plates, by OD600
Description for Candida albicans: Antifungal activity against Candida albicans ATCC 90028 (CO-ADD:FG_001); MIC in YNB media using NBS plates, by OD630
Description for Cryptococcus neoformans: Antifungal activity against Cryptococcus neoformans H99 ATCC 208821 (CO-ADD:FG_002); MIC in YNB media using NBS plates, by Resazurin OD(600-570)
Description for Escherichia coli: Antibacterial activity against Escherichia coli ATCC 25922 (CO-ADD:GN_001); MIC in CAMBH media using NBS plates, by OD(600)
Description for Klebsiella pneumoniae: Antibacterial activity against Klebsiella pneumoniae MDR ATCC 70063 (CO-ADD:GN_003); MIC in CAMBH media using NBS plates, by OD(600)
Description for Pseudomonas aeruginosa: Antibacterial activity against Pseudomonas aeruginosa ATCC 27853 (CO-ADD:GN_042); MIC in CAMBH media using NBS plates, by OD(600)
Description for Staphylococcus aureus: Antibacterial activity against Staphylococcus aureus MRSA ATCC 43300 (CO-ADD:GP_020); MIC in CAMBH media, using NBS plates, by OD(600)

In general, CC50 refers to the concentration giving 50% cytotoxicity. As for `COc1ccc(/C=C/c2ccc(C(=O)Nc3cc(C(=O)Nc4cc(C(=O)NCCN5CCC(O)CC5)n(C)c4)n(C)c3)cn2)cc1.O=C(O)C(F)(F)F.O=C(O)C(F)(F)F`, the MIC against Cryptococcus neoformans, against Pseudomonas aeruginosa, with Candida albicans, against Klebsiella pneumoniae, against Staphylococcus aureus and in the test with Acinetobacter baumannii was above 32 µg/mL throughout. In the test with Escherichia coli, this compound gave an MIC above 32 µg/mL. Also, in the test with HEK293, the CC50 is above 32 µg/mL.

In the case of `COCCOC1CCN(C(=O)c2cc(NC(=O)c3cc(NC(=O)c4ccc(/C=C/c5ccc(OC)cc5)nc4)cn3C)cn2C)CC1.O=S(=O)(O)O`, the MIC in the test with Cryptococcus neoformans, with Pseudomonas aeruginosa, against Candida albicans, with Klebsiella pneumoniae, in the test with Staphylococcus aureus and with Acinetobacter baumannii was above 32 µg/mL each time. Also, the MIC in the test with Escherichia coli is above 32 µg/mL. The CC50 in the test with HEK293 came out at 15.5 µg/mL.

Regarding `COC(=O)CCC(=O)Nc1cc(C(=O)Nc2cc(C(=O)Nc3nc(C(=O)NCCCN(C)C)c(CCC(C)C)s3)n(C)c2)n(C)c1`, the MIC against Cryptococcus neoformans, against Pseudomonas aeruginosa, with Candida albicans, in the test with Klebsiella pneumoniae, against Staphylococcus aureus and in the test on Acinetobacter baumannii was above 32 µg/mL in each case. The same compound yielded an MIC against Escherichia coli above 32 µg/mL. Moreover, the cytotoxic concentration (CC50) in the test on HEK293 is above 32 µg/mL.

With `COc1cccc(/C=C/c2ccc(C(=O)Nc3cc(C(=O)Nc4cc(C(=O)NCCN5CCCCC5)n(CCCc5ccccc5)c4)n(C)c3)cc2)c1.O=C(O)C(F)(F)F`, the MIC with Cryptococcus neoformans, against Pseudomonas aeruginosa, in the test with Candida albicans, in the test on Klebsiella pneumoniae, against Staphylococcus aureus and in the test on Acinetobacter baumannii was above 32 µg/mL each time. In the test on Escherichia coli, the MIC was above 32 µg/mL. The CC50 with HEK293 was determined as 16 µg/mL.

Regarding `CC(C)n1cc(NC(=O)c2cc(NC(=O)c3ccc(/C=C/c4cnc5ccccc5c4)cc3)cn2C)cc1C(=O)NCCN1CCOCC1.O=C(O)C(F)(F)F.O=C(O)C(F)(F)F`, the MIC against Cryptococcus neoformans was 16 µg/mL; against Pseudomonas aeruginosa it was above 32 µg/mL; against Candida albicans it was 32 µg/mL; against Klebsiella pneumoniae, above 32 µg/mL; in the test on Staphylococcus aureus it was 1 µg/mL; against Acinetobacter baumannii, above 32 µg/mL. The compound also registered an MIC in the test on Escherichia coli above 32 µg/mL. Besides, the cytotoxic concentration (CC50) in the test on HEK293 turned out to be 2.81 µg/mL.

For the compound `CC(=N)Nc1cc(C(=O)Nc2cc(C(=O)Nc3cc(C(=O)NCCCN(C)C)n(C)c3)n(C)c2)n(C)c1.O=C(O)C(F)(F)F.O=C(O)C(F)(F)F`, the MIC with Cryptococcus neoformans, in the test on Pseudomonas aeruginosa, in the test on Candida albicans, against Klebsiella pneumoniae, against Staphylococcus aureus and with Acinetobacter baumannii was above 32 µg/mL throughout. Further, the MIC with Escherichia coli was above 32 µg/mL. The CC50 in the test with HEK293 was above 32 µg/mL.

As to `CC(C)c1sc(NC(=O)c2cc(NC(=O)c3cc(NC(=O)c4cc5ccccc5cn4)cn3C)cn2C)nc1C(=O)NCCN1CCOCC1.O=C(O)C(F)(F)F`, the MIC was 32 µg/mL against Cryptococcus neoformans; above 32 µg/mL against Pseudomonas aeruginosa; above 32 µg/mL against Candida albicans; above 32 µg/mL against Klebsiella pneumoniae; above 32 µg/mL in the test with Staphylococcus aureus; above 32 µg/mL in the test on Acinetobacter baumannii. The MIC with Escherichia coli was above 32 µg/mL. Further, the half-maximal cytotoxic concentration (CC50) in the test with HEK293 is above 32 µg/mL.

Take `COc1cccc(/C=C/c2ccc(C(=O)Nc3cc(C(=O)Nc4cc(C(=O)NCCN5CCOCC5)n(C(C)C)c4)n(C)c3)cc2)c1.O=C(O)C(F)(F)F`: the MIC in the test with Cryptococcus neoformans, in the test on Pseudomonas aeruginosa, against Candida albicans, against Klebsiella pneumoniae, against Staphylococcus aureus and against Acinetobacter baumannii was above 32 µg/mL in each case. Also, the MIC against Escherichia coli is above 32 µg/mL. Besides, the CC50 with HEK293 is 4.31 µg/mL.

With `CN(C)CCCNC(=O)c1cc(NC(=O)c2cc(NC(=O)c3cc(NC(=N)c4cc5ccccc5cn4)cn3C)cn2C)cn1C.O=C(O)C(F)(F)F.O=C(O)C(F)(F)F`, the MIC against Cryptococcus neoformans was 8 µg/mL; against Pseudomonas aeruginosa, above 32 µg/mL; against Candida albicans, 32 µg/mL; in the test with Klebsiella pneumoniae, above 32 µg/mL; against Staphylococcus aureus, above 32 µg/mL; in the test on Acinetobacter baumannii it was above 32 µg/mL. The compound further registered an MIC against Escherichia coli above 32 µg/mL. Further, the CC50 in the test on HEK293 is above 32 µg/mL.

Consider `CC(=O)Nc1cc(C(=O)Nc2cc(C(=O)NCCC(=N)N)n(C)c2)n(C)c1.O=C(O)C(F)(F)F`, for which the MIC in the test on Cryptococcus neoformans, against Pseudomonas aeruginosa, in the test with Candida albicans, with Klebsiella pneumoniae, in the test on Staphylococcus aureus and in the test on Acinetobacter baumannii was above 32 µg/mL throughout. For the same compound, the MIC against Escherichia coli is above 32 µg/mL. Moreover, in the test on HEK293, the CC50 is above 32 µg/mL.

In the case of `COc1ccc(/C=C/c2ccc(C(=O)Nc3cc(C(=O)Nc4cc(C(=O)NCCN5CCC(OC)CC5)n(C)c4)n(C)c3)cn2)cc1.O=C(O)C(F)(F)F.O=C(O)C(F)(F)F`, the MIC with Cryptococcus neoformans was above 32 µg/mL; in the test on Pseudomonas aeruginosa, above 32 µg/mL; against Candida albicans, above 32 µg/mL; with Klebsiella pneumoniae, above 32 µg/mL; against Staphylococcus aureus, 1 µg/mL; with Acinetobacter baumannii, above 32 µg/mL. The same compound displayed an MIC in the test on Escherichia coli above 32 µg/mL. Moreover, the CC50 in the test with HEK293 was 2.7 µg/mL.

Consider `CC(C)CCc1sc(NC(=O)c2cc(NC(=O)c3cc(NC(=O)c4sc(N)nc4C(F)(F)F)cn3C)cn2C)nc1C(=O)NCCCN(C)C.O=C(O)C(F)(F)F`, for which the MIC in the test on Cryptococcus neoformans was above 32 µg/mL; in the test with Pseudomonas aeruginosa, above 32 µg/mL; with Candida albicans, above 32 µg/mL; in the test with Klebsiella pneumoniae, above 32 µg/mL; against Staphylococcus aureus, 8 µg/mL; in the test on Acinetobacter baumannii it was above 32 µg/mL. The MIC against Escherichia coli was above 32 µg/mL. Moreover, in the test on HEK293, the CC50 stood at 2.48 µg/mL.

On to `Cn1cc(NC(=O)c2cc(NC(=O)c3ccc(/C=C/c4ccc(F)cc4)cc3)cn2C)cc1C(=O)NCCN1CCOCC1.O=C(O)C(F)(F)F`, for which the MIC in the test on Cryptococcus neoformans, against Pseudomonas aeruginosa, against Candida albicans, in the test on Klebsiella pneumoniae, with Staphylococcus aureus and in the test with Acinetobacter baumannii was above 32 µg/mL throughout. In the test with Escherichia coli, this compound returned an MIC above 32 µg/mL. For the same compound, the CC50 with HEK293 was above 32 µg/mL.

`CC(C)n1cc(NC(=O)c2cc(NC=O)cn2C)cc1C(=O)Nc1cc(C(=O)NCCCN(C)C)n(C)c1.O=C(O)C(F)(F)F`: the MIC in the test on Cryptococcus neoformans, in the test with Pseudomonas aeruginosa, in the test on Candida albicans, against Klebsiella pneumoniae, in the test with Staphylococcus aureus and in the test on Acinetobacter baumannii was above 32 µg/mL in each case. The compound also had an MIC in the test with Escherichia coli above 32 µg/mL. Also, in the test with HEK293, the half-maximal cytotoxic concentration (CC50) was above 32 µg/mL.

Consider `Cn1cc(NC(=O)c2cc(NC(=O)C(C)(C)C)cn2C)cc1C(=O)NCCC(=N)N.O=C(O)C(F)(F)F`, for which the MIC in the test with Cryptococcus neoformans, with Pseudomonas aeruginosa, in the test on Candida albicans, with Klebsiella pneumoniae, in the test with Staphylococcus aureus and against Acinetobacter baumannii was above 32 µg/mL each time. Also, in the test with Escherichia coli, the MIC was above 32 µg/mL. Besides, in the test on HEK293, the CC50 stood at 12.3 µg/mL.

Turning to `Cn1cc(NC(=O)c2cc(NC(=O)c3ccc(/C=C/c4ccc5ccccc5c4)cc3)cn2C)cc1C(=O)NCCN1CCOCC1.O=C(O)C(F)(F)F`, the MIC against Cryptococcus neoformans is above 32 µg/mL; against Pseudomonas aeruginosa it was above 32 µg/mL; in the test with Candida albicans it was 16 µg/mL; against Klebsiella pneumoniae, above 32 µg/mL; against Staphylococcus aureus, above 32 µg/mL; against Acinetobacter baumannii, above 32 µg/mL. Also, the MIC against Escherichia coli was above 32 µg/mL. Also, the CC50 in the test on HEK293 is above 32 µg/mL.
